From patent US20150079000A1, “Labelled Quinoxaline Derivatives as Multimodal Radiopharmaceuticals and Their Precursors” (INSTITUT NATIONAL DE LA SANTET DE LA RECHERCHE MEDICALE, priority 2012, published 2015)

Assay: Metabolism of compound [125I](1)
Type: in vivo, mice
Description: 24 primary melanoma bearing mice were intravenously injected with 2.2 MBq of [^1251](1) and sacrificed 1 h, 3 h, 6 h, 24 h, 72 h and 10 days after tracer injection. To determine the metabolic stability of [^1251](1), blood, tumour, eyes, liver, kidney and urine samples were collected at each time point […]. Faeces were collected between 0-24 h and 24-48 h. Blood was immediately diluted in 5 mL of methanol/NH4OH 99.8:0.2 and centrifuged for 5 min at 3,000 rpm. Tumour, eyes, liver, kidneys and faeces were suspended in 5 mL of methanol/NH4OH 99.8:0.2, homogenized using GentleMACS™ dissociator (Miltenyi Biotec, Bergisch Gladbach, Germany) and centrifuged for 5 min at 3,000 rpm (repeated 2 times). Urines were analysed without any treatment. The extraction efficiency was determined by measuring the radioactivity of supernatants and precipitates. Supernatants were passed through a 0.22 μm Millipore filter and then concentrated to a volume between 200 and 500 μL before injection (duplicate) onto the analytical HPLC(C18 column; solvent A: H2O (0.2% NH4OH); solvent B: MeOH (0.2% NH4OH); Gradient elution: 0-5 min: 90 to 70% of A (Q=0.5 mL·min^−1); 5-30 min: 70 to 20% of A (Q=0.9 mL·min^−1); 30-32 min: 10% of A (Q=0.9 mL·min^−1)).

[1] = Blood, 1 h after [125I](1) injection
[2] = Blood, 3 h after [125I](1) injection
[3] = Blood, 6 h after [125I](1) injection
[4] = Feces, (grid: 3 h; faeces collected 24-48 h)
[5] = Feces, first value column (grid: 1 h; faeces collected 0-24 h)
[6] = Kidney, 1 h after [125I](1) injection
[7] = Kidney, 3 h after [125I](1) injection
[8] = Kidney, 6 h after [125I](1) injection
[9] = Urine, 1 h after [125I](1) injection
[10] = Urine, 3 h after [125I](1) injection
[11] = Urine, 6 h after [125I](1) injection
[12] = Urine, 24 h after [125I](1) injection
[13] = Urine, 72 h after [125I](1) injection
[14] = Liver, 1 h after [125I](1) injection
[15] = Liver, 3 h after [125I](1) injection
[16] = Liver, 6 h after [125I](1) injection
[17] = Liver, 24 h after [125I](1) injection

Structure (SMILES) | % of radioactivity [1] [%] | % of radioactivity [2] [%] | % of radioactivity [3] [%] | % of radioactivity [4] [%] | % of radioactivity [5] [%] | % of radioactivity [6] [%] | % of radioactivity [7] [%] | % of radioactivity [8] [%] | % of radioactivity [9] [%] | % of radioactivity [10] [%] | % of radioactivity [11] [%] | % of radioactivity [12] [%] | % of radioactivity [13] [%] | % of radioactivity [14] [%] | % of radioactivity [15] [%] | % of radioactivity [16] [%] | % of radioactivity [17] [%] | also measured
O=C(O)c1cnc2cc([125I])ccc2n1 [Acid [^125I]I] | 21.5 ± 2.1 | 11.5 ± 0.7 | 11.0 ± 0.0 | 8.0 ± 1.4 | 7.5 ± 0.7 | 29.0 ± 1.4 | 34.2 ± 0.7 | 43.0 ± 1.4 | 17.2 ± 3.1 | 20.0 ± 1.4 | 16.0 ± 1.4 | 3.5 ± 0.7 | 0.0 ± 0.0 |  |  |  |  | 
CCNCCNC(=O)c1cnc2cc([125I])ccc2n1 [Amine [^125I]II] |  |  |  | 2.5 ± 0.7 | 6.5 ± 0.7 |  |  |  |  |  |  |  |  |  |  |  |  | 
NCCNC(=O)c1cnc2cc([125I])ccc2n1 [Amine [^125I]I] |  |  |  | 14.0 ± 0.0 | 16.0 ± 0.0 | 18.5 ± 0.7 | 11.7 ± 0.7 | 0.0 ± 0.0 | 6.6 ± 0.6 | 13.0 ± 1.4 | 3.5 ± 4.9 | 0.0 ± 0.0 | 0.0 ± 0.0 | 26.0 ± 0.0 | 45.5 ± 2.1 | 55.0 ± 2.8 | 70.5 ± 0.7 | 
[125IH] [[^125I]I^−] | 76.5 ± 0.7 | 88.5 ± 0.7 | 85.5 ± 4.9 | 27.0 ± 1.4 | 8.0 ± 0.0 | 20.5 ± 0.7 | 37.2 ± 2.2 | 57.0 ± 1.4 | 25.7 ± 3.2 | 30.5 ± 0.7 | 51.0 ± 4.2 | 85.0 ± 1.4 | 99.0 ± 0.0 | 20.0 ± 1.4 | 21.5 ± 4.9 | 29.5 ± 0.7 | 29.5 ± 0.7 | % of radioactivity (Eyes, 1 h after [125I](1) injection): 9.5 ± 0.7%; % of radioactivity (Eyes, 3 h after [125I](1) injection): 5.5 ± 2.1%; % of radioactivity (Eyes, 6 h after [125I](1) injection): 4.0 ± 5.7%; % of radioactivity (Eyes, 24 h after [125I](1) injection): 0.0 ± 0.0%; % of radioactivity (Eyes, 72 h after [125I](1) injection): 0.0 ± 0.0%; % of radioactivity (Eyes, 10 d after [125I](1) injection): 0.0 ± 0.0%; % of radioactivity (Tumour, 1 h after [125I](1) injection): 13.0 ± 1.4%; % of radioactivity (Tumour, 3 h after [125I](1) injection): 6.5 ± 0.7%; % of radioactivity (Tumour, 6 h after [125I](1) injection): 9.0 ± 0.0%; % of radioactivity (Tumour, 24 h after [125I](1) injection): 0.0 ± 0.0%; % of radioactivity (Tumour, 72 h after [125I](1) injection): 0.0 ± 0.0%; % of radioactivity (Tumour, 10 d after [125I](1) injection): 0.0 ± 0.0%
O=C(O)CNC(=O)c1cnc2cc([125I])ccc2n1 [Acid [^125I]II] |  |  |  | 3.5 ± 0.7 | 3.0 ± 0.0 |  |  |  | 30.3 ± 2.4 | 24.0 ± 0.0 | 21.0 ± 0.0 | 6.5 ± 0.7 | 0.0 ± 0.0 |  |  |  |  | 
